This is an account of results in ChEMBL document CHEMBL3603749, “Ligand efficient tetrahydro-pyrazolopyridines as inhibitors of ERK2 kinase” (Bioorg Med Chem Lett, 2015).

Structures are written as SMILES.

In this data set the test system is Caco-2. Description: Permeability of the compound from apical to basolateral side in human Caco2 cells. It is filed as ADME, cell-based. On the technique in general: Caco-2 monolayers are a common model of the intestinal barrier.

For the compound `CS(=O)(=O)c1cccc(Cn2ccc(N3CCc4[nH]nc(-c5ccncc5)c4C3)cc2=O)c1`, the permeability entry is recorded as “impermeable”. The entry for `O=c1cc(N2CCc3[nH]nc(-c4ccncc4)c3C2)cc[nH]1` is “permeable”.
